Data taken from PubChem BioAssay AID248 (DTP/NCI, 2004).
Several values for one entry are separate records, joined by “and”; a condition that tells them apart may be missing. Equal entries are not always repeated. Inconclusive results and toxic doses are left out. Cut-off read from the data, not from the text of the source: active = T/C of 150% or more; inactive = T/C below 125%.

Tested on: L1210 leukemia ip in BDF1 mice, survival T/C
Test: NCI In Vivo Anticancer Drug Screen. Data for tumor model L1210 Leukemia (intraperitoneal) in B6D2F1 (BDF1) mice
Details: endpoint: mean survival time, higher = longer survival
Method in brief: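 Transplanted-tumor mice were given test agent; controls received vehicle only. Survival readings from the two groups were divided (treated over control).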

[1] = dose: 100.0 mg/kg/injection, schedule: Q01DX001 (ip), vehicle: saline
[2] = dose: 200.0 mg/kg/injection, schedule: Q01DX001 (ip), vehicle: saline
[3] = dose: 400.0 mg/kg/injection, schedule: Q01DX001 (ip), vehicle: saline
[4] = dose: 100.0 mg/kg/injection, schedule: Q04DX003 (ip), vehicle: saline with Tween-80
[5] = dose: 200.0 mg/kg/injection, schedule: Q04DX003 (ip), vehicle: saline with Tween-80
[6] = dose: 400.0 mg/kg/injection, schedule: Q04DX003 (ip), vehicle: saline with Tween-80
[7] = dose: 9.37 mg/kg/injection, schedule: Q01DX009 (ip), vehicle: saline
[8] = dose: 18.75 mg/kg/injection, schedule: Q01DX009 (ip), vehicle: saline
[9] = dose: 37.5 mg/kg/injection, schedule: Q01DX009 (ip), vehicle: saline
[10] = dose: 37.5 mg/kg/injection, schedule: Q04DX003 (ip), vehicle: saline
[11] = dose: 75.0 mg/kg/injection, schedule: Q04DX003 (ip), vehicle: saline
[12] = dose: 200.0 mg/kg/injection, schedule: Q01DX001 (ip), vehicle: Klucel (hydroxypropylcellulose) (HPC)
[13] = dose: 100.0 mg/kg/injection, schedule: Q01DX009 (ip), vehicle: saline with Tween-80
[14] = dose: 200.0 mg/kg/injection, schedule: Q01DX009 (ip), vehicle: saline with Tween-80
[15] = dose: 400.0 mg/kg/injection, schedule: Q01DX009 (ip), vehicle: saline with Tween-80

Measured: T/C

c1ccc2c(c1)C[N+](=C1CCCCC1)C2
inactive: dose: 75.0 mg/kg/injection, schedule: Q01DX009 (ip), vehicle: saline 91 % of control | [1] 93 % of control | dose: 150.0 mg/kg/injection, schedule: Q01DX009 (ip), vehicle: saline 88 % of control | [2] 97 % of control | dose: 300.0 mg/kg/injection, schedule: Q01DX009 (ip), vehicle: saline 91 % of control | [3] 98 % of control

O=C(CSCc1ccccc1)c1ccccc1
inactive: [4] 90 % of control | [5] 90 % of control | [6] 100 % of control

Nc1ccccc1C(=O)OCCc1ccccc1
inactive: dose: 100.0 mg/kg/injection, schedule: Q01DX009 (ip), vehicle: Klucel (hydroxypropylcellulose) (HPC) 93 % of control | dose: 100.0 mg/kg/injection, schedule: Q04DX003 (ip), vehicle: Klucel (hydroxypropylcellulose) (HPC) 94 % of control | dose: 200.0 mg/kg/injection, schedule: Q01DX009 (ip), vehicle: Klucel (hydroxypropylcellulose) (HPC) 93 % of control | dose: 200.0 mg/kg/injection, schedule: Q04DX003 (ip), vehicle: Klucel (hydroxypropylcellulose) (HPC) 95 % of control | dose: 400.0 mg/kg/injection, schedule: Q01DX009 (ip), vehicle: Klucel (hydroxypropylcellulose) (HPC) 95 % of control | dose: 400.0 mg/kg/injection, schedule: Q04DX003 (ip), vehicle: Klucel (hydroxypropylcellulose) (HPC) 92 % of control

CSC(=N)N(C)Cc1ccccc1
inactive: [7] 103 % of control | [8] 111 % of control | dose: 18.75 mg/kg/injection, schedule: Q04DX003 (ip), vehicle: saline 102 % of control | [9] 108 % of control | [10] 96 % of control | dose: 75.0 mg/kg/injection, schedule: Q01DX001 (ip), vehicle: saline 102 % of control | [11] 88 % of control

C/C=C(/C)C(=O)O[C@H]1CC[C@@]2(C)[C@@H]3CC[C@H]4[C@]5(O)C[C@H](O)[C@@]6(O)[C@@H](CN7C[C@@H](C)CC[C@H]7[C@@]6(C)O)[C@]5(O)C[C@@]42O[C@@]13O
inactive: dose: 0.5 mg/kg/injection, schedule: Q01DX001 (ip), vehicle: saline 95 % of control | dose: 1.0 mg/kg/injection, schedule: Q01DX001 (ip), vehicle: saline 98 % of control | dose: 1.5 mg/kg/injection, schedule: Q04DX003 (ip), vehicle: saline with Tween-80 102 % of control | dose: 2.0 mg/kg/injection, schedule: Q01DX001 (ip), vehicle: saline 95 % of control | dose: 4.0 mg/kg/injection, schedule: Q01DX001 (ip), vehicle: saline 101 % of control | dose: 5.0 mg/kg/injection, schedule: Q01DX001 (ip), vehicle: saline 95 % of control

CNC(=O)C(c1ccccc1)C(F)(F)F (centres undefined)
inactive: dose: 100.0 mg/kg/injection, schedule: Q01DX001 (ip), vehicle: saline with Tween-80 97 % of control | dose: 200.0 mg/kg/injection, schedule: Q01DX001 (ip), vehicle: saline with Tween-80 109 % of control | dose: 400.0 mg/kg/injection, schedule: Q01DX001 (ip), vehicle: saline with Tween-80 105 % of control

COc1ccc(Cl)cc1[N+](=O)[O-]
inactive: [12] 95 % of control | dose: 400.0 mg/kg/injection, schedule: Q01DX001 (ip), vehicle: Klucel (hydroxypropylcellulose) (HPC) 95 % of control

Clc1cc(Cl)c2nc(-c3ccc(Cl)c(Cl)c3)cc(C3CO3)c2c1 (centres undefined)
inactive: [1] 94 % of control | [2] 105 % of control | [3] 100 % of control

O=C1c2cccc3cccc(c23)C(=O)N1CCCCCCCCN1C(=O)c2cccc3cccc(c23)C1=O
inactive: dose: 100.0 mg/kg/injection, schedule: Q04DX002 (ip), vehicle: Klucel (hydroxypropylcellulose) (HPC) 88 % of control | dose: 200.0 mg/kg/injection, schedule: Q04DX002 (ip), vehicle: Klucel (hydroxypropylcellulose) (HPC) 101 % of control

CNc1[nH]c(=S)ncc1C
inactive: dose: 100.0 mg/kg/injection, schedule: Q01DX Z (ip), vehicle: methylcellulose (MC) 100 % of control | dose: 200.0 mg/kg/injection, schedule: Q01DX Z (ip), vehicle: methylcellulose (MC) 99 % of control

[O]=[Hf]=[O]
inactive: dose: 100.0 mg/kg/injection, schedule: Q04DX003 (ip), vehicle: saline 96 % of control | dose: 200.0 mg/kg/injection, schedule: Q04DX003 (ip), vehicle: saline 92 % of control | dose: 400.0 mg/kg/injection, schedule: Q04DX003 (ip), vehicle: saline 97 % of control

O=C(O)c1cc(Cl)ccc1O
inactive: dose: 100.0 mg/kg/injection, schedule: Q04DX002 (ip), vehicle: other 100 % of control | dose: 200.0 mg/kg/injection, schedule: Q04DX002 (ip), vehicle: other 103 % of control

Cc1c(C)c2nc3ccccc3nc2c2ccccc12
inactive: dose: 50.0 mg/kg/injection, schedule: Q01DX001 (ip), vehicle: Klucel (hydroxypropylcellulose) (HPC) 98 % of control | dose: 100.0 mg/kg/injection, schedule: Q01DX001 (ip), vehicle: Klucel (hydroxypropylcellulose) (HPC) 95 % of control | [12] 95 % of control

CCCCN(CCCC)CC(O)c1cc(-c2cccc(I)c2)nc2c(Cl)cc(Cl)cc12 (centres undefined)
inactive: [4] 90 % of control | [5] 86 % of control | [6] 98 % of control

Cc1cc2nc3[nH]c4c(Cl)cc(Cl)cc4c3nc2cc1C
inactive: [1] 91 % of control | [2] 89 % of control | [3] 89 % of control

FC(F)(F)c1ccc(-c2ccc(OCCN3CCCC3)cc2)cc1
inactive: dose: 4.68 mg/kg/injection, schedule: Q01DX009 (ip), vehicle: saline 97 % of control | [7] 92 % of control | [8] 94 % of control and 89 % of control | [9] 90 % of control | [10] 93 % of control | [11] 102 % of control | dose: 150.0 mg/kg/injection, schedule: Q04DX003 (ip), vehicle: saline 87 % of control

CC1(O)CC2CCC1C2 (centres undefined)
inactive: dose: 100.0 mg/kg/injection, schedule: Q01DX009 (ip), vehicle: other 102 % of control | [13] 92 % of control | dose: 100.0 mg/kg/injection, schedule: Q04DX003 (ip), vehicle: other 95 % of control | dose: 200.0 mg/kg/injection, schedule: Q01DX009 (ip), vehicle: other 120 % of control | [14] 106 % of control | dose: 200.0 mg/kg/injection, schedule: Q04DX003 (ip), vehicle: other 100 % of control | dose: 400.0 mg/kg/injection, schedule: Q01DX009 (ip), vehicle: other 104 % of control | [15] 92 % of control | dose: 400.0 mg/kg/injection, schedule: Q04DX003 (ip), vehicle: other 91 % of control

CCOC(=O)c1ccc(NCc2cnc(N)nc2N)cc1
inactive: [1] 97 % of control | [2] 90 % of control | [3] 90 % of control

CCOP(=O)(OCC)N1C(=O)CCC1=O
inactive: dose: 6.25 mg/kg/injection, schedule: Q04DX003 (ip), vehicle: saline 105 % of control | dose: 12.5 mg/kg/injection, schedule: Q04DX003 (ip), vehicle: saline 100 % of control | dose: 13.75 mg/kg/injection, schedule: Q01DX009 (ip), vehicle: saline 88 % of control | dose: 25.0 mg/kg/injection, schedule: Q04DX003 (ip), vehicle: saline 103 % of control | dose: 27.5 mg/kg/injection, schedule: Q01DX009 (ip), vehicle: saline 94 % of control | dose: 35.0 mg/kg/injection, schedule: Q04DX003 (ip), vehicle: saline 102 % of control | dose: 55.0 mg/kg/injection, schedule: Q04DX003 (ip), vehicle: saline 101 % of control

Nc1ccc(S(=O)O)cc1
inactive: [13] 94 % of control | [4] 105 % of control | [14] 91 % of control | [5] 95 % of control | [15] 94 % of control | [6] 91 % of control

COC1CCC(OC)(C(=O)NN)O1 (centres undefined)
inactive: [1] 95 % of control | [2] 95 % of control | [3] 102 % of control
